Laboratory results published in US6541484B2 (dated 2003).
Counter-ions that a name gives are not always drawn.

melting point	SMILES
149 to 151 °C	Cn1ncnc1COc1nc2c(cnn2-c2ccccc2)c2ccccc12
147 to 148 °C	CCn1ncnc1COc1nc2c(cnn2-c2ccccc2)c2ccccc12
143 to 145 °C	Cn1ncnc1COc1nc2c(cnn2-c2ccccc2)cc1C(C)(C)C
164 to 166 °C	Cn1ncnc1COc1cc(N)c2cnn(-c3ccccc3)c2n1
150 to 152 °C	CCn1ncnc1COc1nc2c(cnn2-c2ccccc2)cc1C(C)(C)C (as salt: hydrochloride)
